In patent US20100298141A1, “SUBSTITUTED PYRIDINE N-OXIDE HERBICIDES” (E. I. DU PONT DE NEMOURS AND COMPANY, priority 2007, published 2010):

How the values were obtained:
morningglory = assay: Test A pre-/postemergence greenhouse test; type: in vivo, Ipomoea spp.; details: for Morningglory plant response rating: 0 to 100 scale; for Plant response rating, Morningglory: 0 to 100 scale where 0 is no effect and 100 is complete control
How it was run: (§1)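 Planting was into mixed loam soil and sand; preemergence treatment followed as a directed soil spray. Concurrently, emerged plants (one- to two-leaf, 2–10 cm) received postemergence applications of identically formulated compound (non-phytotoxic solvent, surfactant). After approximately ten days under greenhouse conditions, injury was judged by eye against untreated plants.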

rice = assay: Test C flooded paddy test; type: in vivo, Oryza sativa; details: Flood
How it was run: (§2)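 In-water treatment: compound dosed into 3 cm flood over soil, water level unchanged throughout. Controls run alongside; visual assessment at day 13–15.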

velvetleaf = assay: Test A pre-/postemergence greenhouse test; type: in vivo, Abutilon theophrasti; details: for Velvetleaf plant response rating: 0 to 100 scale; for Plant response rating, Velvetleaf: 0 to 100 scale where 0 is no effect and 100 is complete control
How it was run: as §1

crabgrass = assay: Test A pre-/postemergence greenhouse test; type: in vivo, Digitaria sanguinalis; details: for Crabgrass, Large plant response rating: 0 to 100 scale; for Plant response rating, Crabgrass, Large: 0 to 100 scale where 0 is no effect and 100 is complete control
How it was run: as §1

umbrella sedge = assay: Test C flooded paddy test; type: in vivo, Cyperus difformis; details: Flood
How it was run: as §2

duck salad = assay: Test C flooded paddy test; type: in vivo, Heteranthera limosa; details: Flood
How it was run: as §2

giant foxtail = assay: Test A pre-/postemergence greenhouse test; type: in vivo, Setaria faberi; details: for Foxtail, Giant plant response rating: 0 to 100 scale; for Plant response rating, Foxtail, Giant: 0 to 100 scale where 0 is no effect and 100 is complete control
How it was run: as §1

barnyardgrass [1] = assay: Test A pre-/postemergence greenhouse test; type: in vivo, Echinochloa crus-galli; details: for Barnyardgrass plant response rating: 0 to 100 scale; for Plant response rating, Barnyardgrass: 0 to 100 scale where 0 is no effect and 100 is complete control
How it was run: as §1

wheat = assay: Test A pre-/postemergence greenhouse test; type: in vivo, Triticum aestivum; details: for Wheat plant response rating: 0 to 100 scale; for Plant response rating, Wheat: 0 to 100 scale where 0 is no effect and 100 is complete control
How it was run: as §1

barnyardgrass [2] = assay: Test C flooded paddy test; type: in vivo, Echinochloa crus-galli; details: Flood
How it was run: as §2

corn = assay: Test A pre-/postemergence greenhouse test; type: in vivo, Zea mays; details: for Corn plant response rating: 0 to 100 scale; for Plant response rating, Corn: 0 to 100 scale where 0 is no effect and 100 is complete control
How it was run: as §1

redroot pigweed = assay: Test A pre-/postemergence greenhouse test; type: in vivo, Amaranthus retroflexus; details: for Pigweed plant response rating: 0 to 100 scale; for Plant response rating, Pigweed: 0 to 100 scale where 0 is no effect and 100 is complete control
How it was run: as §1

[3] = Postemergence, 125 g ai/ha, 0 is no effect, 100 is complete control
[4] = Postemergence, 500 g ai/ha, 0 is no effect, 100 is complete control
[5] = Preemergence, 125 g ai/ha, 0 no effect, 100 complete control
[6] = 31 g ai/ha, scale 0 to 100 (0 no effect, 100 complete control)
[7] = 62 g ai/ha, scale 0 to 100, 0 no effect, 100 complete control, 13 to 15 days
[8] = 125 g ai/ha, scale 0 to 100, 0 no effect, 100 complete control, 13 to 15 days
[9] = 250 g ai/ha, scale 0 to 100 (0 no effect, 100 complete control)
[10] = Preemergence, 500 g ai/ha, 0 no effect, 100 complete control
[11] = 62 g ai/ha, scale 0 to 100 (0 no effect, 100 complete control)
[12] = 250 g ai/ha, scale 0 to 100, 0 no effect, 100 complete control, 13 to 15 days

Cc1cc[n+]([O-])c([S+]([O-])C(C)c2c(C(F)(F)F)nn(C)c2Cl)c1 (mixture of isomers) [Compound 15]
85: Plant response rating, Sedge, Umbrella (umbrella sedge; [6]) | Plant response rating, Sedge, Umbrella (umbrella sedge; [7]) | Plant response rating, Sedge, Umbrella (umbrella sedge; [8])
0: Morningglory plant response rating (morningglory; [3]) | Morningglory plant response rating (morningglory; [4]) | Morningglory plant response rating (morningglory; [5]) | Plant response rating, Morningglory (morningglory; Preemergence, 500 g ai/ha) | Plant response rating, Rice (rice; [6]) | Plant response rating, Rice (rice; [7]) | Plant response rating, Rice (rice; [8]) | Plant response rating, Rice (rice; [9]) | Velvetleaf plant response rating (velvetleaf; [3]) | Velvetleaf plant response rating (velvetleaf; [4]) | Velvetleaf plant response rating (velvetleaf; [5]) | Plant response rating, Velvetleaf (velvetleaf; Preemergence, 500 g ai/ha) | Crabgrass, Large plant response rating (crabgrass; [3]) | Crabgrass, Large plant response rating (crabgrass; [4]) | Crabgrass, Large plant response rating (crabgrass; [5]) | Foxtail, Giant plant response rating (giant foxtail; [3]) | Foxtail, Giant plant response rating (giant foxtail; [4]) | Foxtail, Giant plant response rating (giant foxtail; [5]) | Plant response rating, Foxtail, Giant (giant foxtail; Preemergence, 500 g ai/ha) | Barnyardgrass plant response rating (barnyardgrass [1]; [3]) | Barnyardgrass plant response rating (barnyardgrass [1]; [4]) | Barnyardgrass plant response rating (barnyardgrass [1]; [5]) | Plant response rating, Barnyardgrass (barnyardgrass [1]; Preemergence, 500 g ai/ha) | Wheat plant response rating (wheat; [3]) | Wheat plant response rating (wheat; [4]) | Wheat plant response rating (wheat; [5]) | Plant response rating, Wheat (wheat; Preemergence, 500 g ai/ha) | Corn plant response rating (corn; [3]) | Corn plant response rating (corn; [4]) | Corn plant response rating (corn; [5]) | Plant response rating, Corn (corn; Preemergence, 500 g ai/ha) | Pigweed plant response rating (redroot pigweed; [3]) | Pigweed plant response rating (redroot pigweed; [4]) | Plant response rating, Pigweed (redroot pigweed; Preemergence, 500 g ai/ha)
80: Plant response rating, Ducksalad (duck salad; [7]) | Plant response rating, Ducksalad (duck salad; [8])
20: Plant response rating, Crabgrass, Large (crabgrass; Preemergence, 500 g ai/ha) | Plant response rating, Ducksalad (duck salad; [6]) | Plant response rating, Barnyardgrass (barnyardgrass [2]; [6]) | Plant response rating, Barnyardgrass (barnyardgrass [2]; [7]) | Plant response rating, Barnyardgrass (barnyardgrass [2]; [8]) | Plant response rating, Barnyardgrass (barnyardgrass [2]; [9])

CC(C)c1cc[n+]([O-])c([S+]([O-])Cc2c(C(F)(F)F)nn(C)c2OCC(F)(F)F)c1 (stereo not shown) [Compound 104]
0: Plant response rating, Sedge, Umbrella (umbrella sedge; [11]) | Plant response rating, Barnyardgrass (barnyardgrass [2]; [11])
15: Plant response rating, Rice (rice; [12])
100: Morningglory plant response rating (morningglory; [4]) | Morningglory plant response rating (morningglory; [10]) | Crabgrass, Large plant response rating (crabgrass; [10]) | Foxtail, Giant plant response rating (giant foxtail; [10]) | Barnyardgrass plant response rating (barnyardgrass [1]; [10]) | Wheat plant response rating (wheat; [10]) | Pigweed plant response rating (redroot pigweed; [10])
90: Crabgrass, Large plant response rating (crabgrass; [4]) | Foxtail, Giant plant response rating (giant foxtail; [4]) | Foxtail, Giant plant response rating (giant foxtail; [5]) | Barnyardgrass plant response rating (barnyardgrass [1]; [4]) | Pigweed plant response rating (redroot pigweed; [4]) | Pigweed plant response rating (redroot pigweed; [5])
40: Velvetleaf plant response rating (velvetleaf; [5]) | Plant response rating, Crabgrass, Large (crabgrass; Postemergence, 125 g ai/ha) | Barnyardgrass plant response rating (barnyardgrass [1]; [5]) | Corn plant response rating (corn; [5])
70: Velvetleaf plant response rating (velvetleaf; [4]) | Corn plant response rating (corn; [4]) | Corn plant response rating (corn; [10])
50: Morningglory plant response rating (morningglory; [5]) | Plant response rating, Velvetleaf (velvetleaf; Postemergence, 125 g ai/ha) | Plant response rating, Barnyardgrass (barnyardgrass [1]; Postemergence, 125 g ai/ha) | Plant response rating, Wheat (wheat; Postemergence, 125 g ai/ha) | Wheat plant response rating (wheat; [5]) | Plant response rating, Corn (corn; Postemergence, 125 g ai/ha) | Plant response rating, Pigweed (redroot pigweed; Postemergence, 125 g ai/ha)
10: Plant response rating, Rice (rice; [11])
60: Wheat plant response rating (wheat; [4])
20: Plant response rating, Barnyardgrass (barnyardgrass [2]; [12])
30: Plant response rating, Morningglory (morningglory; Postemergence, 125 g ai/ha) | Plant response rating, Ducksalad (duck salad; [11])
80: Velvetleaf plant response rating (velvetleaf; [10]) | Crabgrass, Large plant response rating (crabgrass; [5]) | Plant response rating, Sedge, Umbrella (umbrella sedge; [12]) | Plant response rating, Ducksalad (duck salad; [12]) | Plant response rating, Foxtail, Giant (giant foxtail; Postemergence, 125 g ai/ha)
